Source: US20240025856A1, “1,2,3,4-TETRAHYDROQUINOLINE DERIVATIVES AS INHIBITORS OF THE YAP/TAZ-TEAD ACTIVATION FOR TREATING CANCER” (KATHOLIEKE UNIVERSITEIT LEUVEN, priority 2020, published 2024)

Columns and labels:
[1] = test system: NCI-1H2052; test: Mesothelioma cell line proliferation assay, H2052 (ATPlite); format: cell-based; conditions: Homo sapiens, NCI-H2052, 144 h, 6 days with compound, read-out: H2025 (EC50)
Experimental: (§1) Mesothelioma cell lines, NCI-1H226 and NCI-1H2052 (all sourced from the ATCC cell culture collection) are plated in 96-well plates (Corning® 96 Well White Polystyrene Microplate clear flat bottom, white polystyrene (TC-Treated)), at 1500 cells/well in full medium (RPMI 1640 ATCC modification with L-glutamine, HEPES, Phenol Red, Sodium Pyruvate, High glucose, Low sodium bicarbonate and 10% fetal bovine serum). Cells are incubated overnight at 37° C. in an incubator with 5% C02. Then compounds, dissolved in DMSO, are added in dose-response. Cells are incubated with compound dilutions for another 6 days at 37° C. in an incubator with 5% C02. Cell viability is quantitated using the ATPlite kit (Perkin-Elmer) and the luminescence is read-out using an Envision instrument (Perkin-Elmer). The amount of relative light units produced using the ATPlite kit is used to calculated percent of inhibition.
(§2) The activities of some example compounds are depicted in the table below. The activity ranges A, B and C refer to EC50 values in the mesothelioma cell line proliferation assay as described as follows: “A”: EC50<1 μM; “B”: 1 μM s EC50≤10 μM and “C”: EC50≥10 μM; NT: not tested.

[2] = test system: NCI-1H226; test: Mesothelioma cell line proliferation assay, H226 (ATPlite); format: cell-based; conditions: Homo sapiens, NCI-H226, 144 h, 6 days with compound
Experimental: as §1, §2

[3] = test system: YAP/TAZ-TEAD transcription; test: Reporter gene assay for measuring the inhibition of YAP/TAZ-TEAD transcription (TEAD-responsive element luciferase reporter in Hek293T cells); format: cell-based; conditions: Homo sapiens, HEK-293T, 24 h, Hek293T cells transiently transfected with TEAD-responsive element luciferase reporter; 24 hours incubation
Outline: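 Hek293T cells transiently transfected with a TEAD-responsive element luciferase reporter, plated onto pre-diluted compounds and incubated 24 h at 37 °C/5% CO2. Luminescence read after SteadyLite addition; % inhibition from RLU relative to vehicle (0%) and a positive control inhibitor (100%), giving IC50.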

[4] = test system: NCI-H226 tumor cells; test: In vivo efficacy in a subcutaneous human lung cancer xenograft model (NCI-H226 mesothelioma); set-up: species or system Female BALB/c Nude Mice; conditions: 100 mg/kg, p.o., BID × 21 days
Experimental: The NCI-H226 tumor cells were maintained in vitro with RPMI-1640 medium supplemented with 10% fetal bovine serum at 37° C. in an atmosphere of 5% CO2 in air. The cells in exponential growth phase were harvested and the cell numbers were quantitated by hemocytometer and cell viability was quantified by Trypan Blue counting before tumor inoculation. Balb/c nude mouse were inoculated with subcutaneously in the right front flank regions with 1×10^7 of NCI-H226 tumor cells in 0.1 mL of PBS mixed with 0.1 ml of Matrigel (1:1) for tumor development. All animals were randomized based on the tumor sizes as well as body weights and randomly allocated to the different study groups (8 mice per group). The randomization started when the mean tumor size at the right rear flank region had reached approximately 172 mm^3. The date of randomization was denoted as Day 0.
Cpd. No. 084 was formulated in Vehicle 1 (PEG400 (40%)+PG (30%)+WFI (30%)) as a 10 mg/ml solution, and dosed orally, twice daily, using 10 μl/g (final dose is 100 mg/kg) for 21 days. Cpd. No. 001 was formulated in Vehicle 2 (PEG400 (65%)+PG (20%)+WFI (15%)) as a 10 mg/ml solution, and dosed orally, twice daily, using 10 μl/g (final dose is 100 mg/kg) for 21 days. After tumor cell inoculation, the animals were checked daily for morbidity and mortality. At the time of routine monitoring, the animals were checked for any effects of tumor growth and treatments on behavior such as mobility, food and water consumption, body weight gain/loss (body weight was measured at least two times per week), and any other abnormalities. Mortality and observed clinical signs were recorded for individual animals. Tumor volumes were measured at least two times weekly in two dimensions using a caliper, and the volume was expressed in mm^3 using the formula: V=(L×W×W)/2, where V is tumor volume, L is tumor length (the longest tumor dimension) and W is tumor width (the longest tumor dimension perpendicular to L).
Tumor growth inhibition (TGI) was used as an indicator of antitumor activities, and was calculated from the relative tumor volumes of the control and treatment groups due to the variance of tumor volumes among groups at Day 0. TGI (%)=(1-T/C)×100%; T/C=MTVt/MTVc, MTVt: mean tumor volume in the treatment groups at a specific measurement day, MTVc: mean tumor volume in the control group at a specific measurement day. Moreover, the difference of TGIs between control and treatment groups was analyzed at a measurement day when all or most of the mice in the control groups were alive. In addition, body weight changes over time in each group were used as an index to evaluate the tolerability of test drugs, and were calculated from the average percentage of body weight changes of each individual mouse relative to their initial body weight at randomization using the following formula: group BW %=mean of ((BWt−BW0)/BW0×100%), BWt: body weight at Day t, BW0: body weight at Day 0.
To compare relative tumor volumes of different groups at a pre-specified day, we first used Bartlett's test to check the assumption of homogeneity of variance across all groups. When the p-value of Bartlett's test is >0.05, we run one-way ANOVA to test overall equality of means across all groups. If the p-value of the one-way ANOVA is <0.05, we further perform post hoc testing by running Tukey's HSD (honest significant difference) tests for all pairwise comparisons, and Dunnett's tests for comparing each treatment group with the vehicle group. When the p-value of Bartlett's test is <0.05, we run Kruskal-Wallis test to test overall equality of medians among all groups. If the p-value of the Kruskal-Wallis test is <0.05, we further perform post hoc testing by running Conover's non-parametric test for all pairwise comparisons or for comparing each treatment group with the vehicle group, both with single-step p-value adjustment. All tests were two-sided unless otherwise specified, and p-values<0.05 were regarded as statistically significant. […]

[5] = day 20, against the compound's own vehicle group

Row | Structure (SMILES) | IC50 [3] | EC50 [1] | EC50 [2] | anti-tumor activity in the xenograft mesothelioma model [4] | Mean Tumor Volume (mm^3) on day 20 ([4]; day 20, 8 mice per group) | T/C (%) [4, 5] | TGI (%) [4, 5]
1 | C=CC(=O)NC1Cc2ccccc2N(c2ccc(C(F)(F)F)c(F)c2)C1 (stereo not drawn) [compound 028, N-(1-(3-fluoro-4-(trifluoromethyl)phenyl)-1,2,3,4-tetrahydroquinolin-3-yl)acrylamide] | < 1000 nM | < 1000 nM | < 1000 nM |  |  |  | 
2 | C=CC(=O)NC1Cc2ccccc2N(c2ccc(C(F)(F)F)cc2F)C1 (stereo not drawn) [compound 029, N-(1-(2-fluoro-4-(trifluoromethyl)phenyl)-1,2,3,4-tetrahydroquinolin-3-yl)acrylamide] | < 1000 nM | < 1000 nM | < 1000 nM |  |  |  | 
3 | C=CC(=O)NC1Cc2c(NCCOC)cccc2N(c2ccc(C(F)(F)F)cc2)C1 (stereo not drawn) [compound 077, N-(5-((2-methoxyethyl)amino)-1-(4-(trifluoromethyl)phenyl)-1,2,3,4-tetrahydroquinolin-3-yl)acrylamide] | < 1000 nM | < 1000 nM | < 1000 nM |  |  |  | 
4 | C=CC(=O)NC1Cc2c(C#N)cccc2N(c2ccc(C(F)(F)F)cc2)C1 (stereo not drawn) [compound 078, N-(5-cyano-1-(4-(trifluoromethyl)phenyl)-1,2,3,4-tetrahydroquinolin-3-yl)acrylamide] | < 1000 nM | < 1000 nM | < 1000 nM |  |  |  | 
5 | C=CC(=O)NC1Cc2ncccc2N(c2ccc(C(F)(F)F)cc2)C1 (stereo not drawn) [compound 080, N-(1-(4-(trifluoromethyl)phenyl)-1,2,3,4-tetrahydro-1,5-naphthyridin-3-yl)acrylamide] | < 1000 nM | < 1000 nM | < 1000 nM |  |  |  | 
6 | C=CC(=O)NC1Cc2cccnc2N(c2ccc(C(F)(F)F)cc2)C1 (stereo not drawn) [compound 081, N-(1-(4-(trifluoromethyl)phenyl)-1,2,3,4-tetrahydro-1,8-naphthyridin-3-yl)acrylamide] | < 1000 nM | < 1000 nM | < 1000 nM |  |  |  | 
7 | C=CC(=O)NC1Cc2ccccc2N(c2ccc(C#N)cc2)C1 (stereo not drawn) [compound 142, N-(1-(4-cyanophenyl)-1,2,3,4-tetrahydroquinolin-3-yl)acrylamide] | < 1000 nM | < 1000 nM | < 1000 nM |  |  |  | 
8 | C=CC(=O)NCC1Cc2ccccc2N([C@H]2CC[C@H](C(F)(F)F)CC2)C1 (stereo partly drawn) [compound 143, trans-N-((1-(4-(trifluoromethyl)cyclohexyl)-1,2,3,4-tetrahydroquinolin-3-yl)methyl)acrylamide] | < 1000 nM | < 1000 nM | < 1000 nM |  |  |  | 
9 | C=CC(=O)NC1Cc2c(CC#N)cccc2N(c2ccc(C(F)(F)F)cc2)C1 (stereo not drawn) [compound 164, N-(5-(cyanomethyl)-1-(4-(trifluoromethyl)phenyl)-1,2,3,4-tetrahydroquinolin-3-yl)acrylamide] | < 1000 nM | < 1000 nM | < 1000 nM |  |  |  | 

Now from value to compound, other results behind:

Row | IC50 [3] | Structure (SMILES) | EC50 [1] | EC50 [2] | anti-tumor activity in the xenograft mesothelioma model [4] | Mean Tumor Volume (mm^3) on day 20 ([4]; day 20, 8 mice per group) | T/C (%) [4, 5] | TGI (%) [4, 5]
10 | < 1000 nM | C=C(F)C(=O)NC1Cc2ccccc2N(c2ccc(C(F)(F)F)cc2)C1 (stereo not drawn) [compound 039, 2-fluoro-N-(1-(4-(trifluoromethyl)phenyl)-1,2,3,4-tetrahydroquinolin-3-yl)acrylamide] | < 1000 nM | < 1000 nM |  |  |  | 
11 | < 1000 nM | C=CC(=O)NC1Cc2c(F)cccc2N(c2ccc(C(F)(F)F)cc2)C1 (stereo not drawn) [compound 060, N-(5-fluoro-1-(4-(trifluoromethyl)phenyl)-1,2,3,4-tetrahydroquinolin-3-yl)acrylamide] | < 1000 nM | < 1000 nM |  |  |  | 
12 | < 1000 nM | C=CC(=O)NC1Cc2c(N)cccc2N(c2ccc(C(F)(F)F)cc2)C1 (stereo not drawn) [compound 075, N-(5-amino-1-(4-(trifluoromethyl)phenyl)-1,2,3,4-tetrahydroquinolin-3-yl)acrylamide] | < 1000 nM | < 1000 nM |  |  |  | 
13 | < 1000 nM | C=CC(=O)NC1Cc2ccncc2N(c2ccc(C(F)(F)F)cc2)C1 (stereo not drawn) [compound 083, N-(1-(4-(trifluoromethyl)phenyl)-1,2,3,4-tetrahydro-1,7-naphthyridin-3-yl)acrylamide] | < 1000 nM | < 1000 nM |  |  |  | 
14 | < 1000 nM | C=CC(=O)NCC1Cc2ccccc2N(c2ccc(C(F)(F)F)cc2)C1 (stereo not drawn) [compound 084, N-((1-(4-(trifluoromethyl)phenyl)-1,2,3,4-tetrahydroquinolin-3-yl)methyl)acrylamide] |  | < 1000 nM | highly statistically significant and strong anti-tumor activity | 165.82 ± 15.42 (8) mm^3 | 38.95% | 61.05%
15 | < 1000 nM | C=CC(=O)NC1Cc2c(CO)cccc2N(c2ccc(C(F)(F)F)cc2)C1 (stereo not drawn) [compound 139, N-(5-(hydroxymethyl)-1-(4-(trifluoromethyl)phenyl)-1,2,3,4-tetrahydroquinolin-3-yl)acrylamide] | < 1000 nM | < 1000 nM |  |  |  | 
16 | < 1000 nM | C=CC(=O)NCC1Cc2ccccc2N(c2ccc(C#N)cc2)C1 (stereo not drawn) [compound 147, N-((1-(4-cyanophenyl)-1,2,3,4-tetrahydroquinolin-3-yl)methyl)acrylamide] | < 1000 nM | < 1000 nM |  |  |  | 
17 | < 1000 nM | C=CC(=O)NCC1Cc2ccccc2N(c2ccc(C(F)F)nc2)C1 (stereo not drawn) [compound 149, N-((1-(6-(difluoromethyl)pyridin-3-yl)-1,2,3,4-tetrahydroquinolin-3-yl)methyl)acrylamide] | 1000 to 10000 nM | 1000 to 10000 nM |  |  |  | 
18 | < 1000 nM | CC(=O)NCC1Cc2c(N)cccc2N(c2ccc(C(F)(F)F)cc2)C1 (stereo not drawn) [compound 150, N-((5-amino-1-(4-(trifluoromethyl)phenyl)-1,2,3,4-tetrahydroquinolin-3-yl)methyl)acetamide] | < 1000 nM | < 1000 nM |  |  |  | 
